Measurements from the supplement of paper PMC10307832.

Tests used:
Test in all cases: relative viability (nuclei count vs DMSO), 5 days (fraction); higher = more cells survive
[1] = compound: CC1CC(=O)N(C2=CN=C(N=C2N1C3CCCC3)NC4=C(C=C(C=C4)C(=O)NC5CCN(CC5)C)OC)C [NPK76-II-72-1] + CS(=O)(=O)CCNCc1ccc(-c2ccc3ncnc(Nc4ccc(OCc5cccc(F)c5)c(Cl)c4)c3c2)o1 [Lapatinib] (partner 2 µM)
Outline: (§1)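 Lung cancer cell lines were seeded in 1536-well plates and dosed by pin tool the next day, with either a single drug or a fixed anchor-drug dose combined with five library-drug doses (not always all listed) spaced in √10 steps. Five days later, one step fixed the cells and stained their nuclei (final 0.05% Triton X-100, 1% formaldehyde, 1 ug/ml Hoechst), and nuclei were counted on 4× images. Relative viability is the nuclei count in treated wells divided by the count in vehicle wells, and each value is the median of duplicate plates.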

NPK76-II-72-1 + Olaparib = compound: CC1CC(=O)N(C2=CN=C(N=C2N1C3CCCC3)NC4=C(C=C(C=C4)C(=O)NC5CCN(CC5)C)OC)C [NPK76-II-72-1] + O=C(c1cc(Cc2n[nH]c(=O)c3ccccc23)ccc1F)N1CCN(C(=O)C2CC2)CC1 [Olaparib] (partner 8 µM)
Outline: as §1

BI-2536 + Tozasertib = compound: CC[C@@H]1C(=O)N(C)c2cnc(Nc3ccc(C(=O)NC4CCN(C)CC4)cc3OC)nc2N1C1CCCC1 [BI-2536] + Cc1cc(Nc2cc(N3CCN(C)CC3)nc(Sc3ccc(NC(=O)C4CC4)cc3)n2)n[nH]1 [Tozasertib] (partner 0.1 µM)
Outline: as §1

BI-2536 + Decitabine = compound: CC[C@@H]1C(=O)N(C)c2cnc(Nc3ccc(C(=O)NC4CCN(C)CC4)cc3OC)nc2N1C1CCCC1 [BI-2536] + Nc1ncn([C@H]2C[C@H](O)[C@@H](CO)O2)c(=O)n1 [Decitabine] (partner 2 µM)
Outline: as §1

Cell Line	relative viability ([1]; first compound 0.01 µM)	relative viability ([1]; first compound 0.03162 µM)	relative viability ([1]; first compound 0.1 µM)	relative viability ([1]; first compound 0.3162 µM)	relative viability ([1]; first compound 1 µM)	relative viability (NPK76-II-72-1 + Olaparib; first compound 0.01 µM)	relative viability (NPK76-II-72-1 + Olaparib; first compound 0.03162 µM)	relative viability (NPK76-II-72-1 + Olaparib; first compound 0.1 µM)	relative viability (NPK76-II-72-1 + Olaparib; first compound 0.3162 µM)	relative viability (NPK76-II-72-1 + Olaparib; first compound 1 µM)	relative viability (BI-2536 + Tozasertib; first compound 0.01 µM)	relative viability (BI-2536 + Tozasertib; first compound 0.03162 µM)	relative viability (BI-2536 + Tozasertib; first compound 0.1 µM)	relative viability (BI-2536 + Tozasertib; first compound 0.3162 µM)	relative viability (BI-2536 + Tozasertib; first compound 1 µM)	relative viability (BI-2536 + Decitabine; first compound 0.01 µM)	relative viability (BI-2536 + Decitabine; first compound 0.03162 µM)	relative viability (BI-2536 + Decitabine; first compound 0.1 µM)	relative viability (BI-2536 + Decitabine; first compound 0.3162 µM)	relative viability (BI-2536 + Decitabine; first compound 1 µM)
201T	0.975	1.07	1.04	1.11	1	0.792	0.826	0.836	0.851	0.839	0.996	0.925	0.93	0.41	0.388	0.873	0.838	0.815	0.332	0.225
A549	0.881	1.11	0.963	0.869	1.07	0.215	0.387	0.356	0.269	0.417						0.26	0.315	0.246	0.0414	0.0226
A-427	1.07	1.04	1.02	1.03	0.953	0.644	0.772	0.74	0.653	0.869	0.187	0.211	0.189	0.15	0.146	0.555	0.539	0.469	0.204	0.185
ABC-1	1.02	1.19	1.18	1.08	1.31	0.606	0.537	0.764	0.803	1.34	0.203	0.147	0.185	0.197	0.233	1.04	0.989	0.385	0.397	0.467
BEN	0.61	0.548	0.657	0.492	0.697	1.01	1.14	1.04	1.03	1	0.524	0.546	0.452	0.58	0.553	0.699	0.72	0.429	0.366	0.421
CAL-12T	0.571	0.749	0.632		0.777	0.724	0.829	0.726	0.741	0.825	0.291	0.294	0.2	0.194	0.186					
COR-L23	0.879	1.02	1.02	1.03	0.929	0.321	0.38	0.34	0.335	0.396	0.196	0.189	0.137	0.145	0.151	0.424	0.359	0.149	0.104	0.13
COR-L 105	0.404	0.375	0.358	0.367	0.345	0.586	0.795	0.46	0.683	0.794	0.351	0.408	0.299	0.306	0.333	0.688	0.686	0.542	0.352	0.322
Calu-6	1.01	1.12	1.08	1.03	1.17	0.561	0.625	0.65	0.62	0.559										
ChaGo-K-1						0.417	0.401	0.392	0.418	0.448	0.216	0.227	0.219	0.211	0.239	0.524	0.402	0.403	0.184	0.206
EBC-1	0.193	0.182	0.218	0.229	0.218	0.697	0.734	0.712	0.7	0.812										
EKVX	0.206	0.193	0.22	0.222	0.236	0.755	0.898	0.735		1.02	0.321	0.482	0.394	0.202	0.132	0.303	0.333	0.288	0.164	0.169
EMC-BAC-2	0.9	1.05	0.871	0.884	0.912	0.468	0.506	0.51	0.486	0.541	0.302	0.302	0.201	0.212	0.209	0.986	0.959	0.866	0.287	0.235
EPLC-272H	0.905	0.968	1.01	1.04	1.11	0.831	0.825	0.782	0.732	0.765	0.187	0.252	0.215	0.148	0.164	0.359	0.363	0.258	0.0826	0.131
H3255	0.263	0.25	0.217		0.226	0.531	0.552	0.561	0.483	0.592	0.569	0.507	0.586	0.196	0.224	0.565	0.374	0.428	0.16	0.299
HARA	0.762	0.806	0.578	0.722	0.713	0.888	0.756	0.76		0.872	0.109	0.127	0.114	0.0998	0.128	0.529	0.521	0.433	0.162	0.191
HCC-15	0.85	0.879	0.787	0.749	0.895	0.679	0.766	0.639	0.689	0.741	0.461	0.389	0.195	0.14	0.108	0.652	0.504	0.246	0.124	0.151

Cell Line	relative viability ([1]; first compound 0.01 µM)	relative viability ([1]; first compound 0.03162 µM)	relative viability ([1]; first compound 0.1 µM)	relative viability ([1]; first compound 0.3162 µM)	relative viability ([1]; first compound 1 µM)	relative viability (NPK76-II-72-1 + Olaparib; first compound 0.01 µM)	relative viability (NPK76-II-72-1 + Olaparib; first compound 0.03162 µM)	relative viability (NPK76-II-72-1 + Olaparib; first compound 0.1 µM)	relative viability (NPK76-II-72-1 + Olaparib; first compound 0.3162 µM)	relative viability (NPK76-II-72-1 + Olaparib; first compound 1 µM)	relative viability (BI-2536 + Tozasertib; first compound 0.01 µM)	relative viability (BI-2536 + Tozasertib; first compound 0.03162 µM)	relative viability (BI-2536 + Tozasertib; first compound 0.1 µM)	relative viability (BI-2536 + Tozasertib; first compound 0.3162 µM)	relative viability (BI-2536 + Tozasertib; first compound 1 µM)	relative viability (BI-2536 + Decitabine; first compound 0.01 µM)	relative viability (BI-2536 + Decitabine; first compound 0.03162 µM)	relative viability (BI-2536 + Decitabine; first compound 0.1 µM)	relative viability (BI-2536 + Decitabine; first compound 0.3162 µM)	relative viability (BI-2536 + Decitabine; first compound 1 µM)
HCC-44	0.983	0.991	0.935	0.937	1	0.955	1	0.946	0.935	0.989	0.967	0.333	0.262	0.143	0.216	1.01	0.974	0.843	0.332	0.298
HCC-78		0.642	0.706		1.01	0.86	0.872	0.476	0.869	0.85	0.405	0.304	0.325	0.253	0.259	0.678	0.692	0.694	0.363	0.331
HCC-366	1.04	1.08	1.01	1.14	1.08	0.328	0.374	0.469	0.39	0.366	0.119	0.169	0.115	0.038	0.0412	0.407	0.408	0.248	0.036	0.0402
HCC-827	0.194	0.211	0.173	0.171	0.224	0.615	0.649	0.66	0.608	0.619	0.45	0.414	0.428	0.376	0.308	0.357	0.363	0.269	0.203	0.117
IA-LM	0.786	0.877	0.804	0.785	1.03	0.811	0.825	0.766	0.788	0.847										
LCLC-103H							0.744	0.74	0.796	0.759	0.471	0.412	0.284	0.292	0.252	0.792	0.749	0.652	0.322	0.333
NCI-H441						0.476	0.598	0.648	0.589	0.573	0.557	0.352	0.274	0.293	0.31	0.244	0.247	0.153	0.149	0.149
NCI-H522						0.586	0.661	0.703		0.607	0.488	0.581	0.634	0.447	0.412	0.715	0.626	0.698	0.312	0.358
NCI-H1299	0.949	1.01	0.957	0.961	0.954	0.946	1.01	0.953	0.95	0.947										
NCI-H1563	0.976	1.03	0.946	0.942	1.02															
NCI-H1623											0.478	0.448	0.383	0.402	0.328					
NCI-H1648						0.535	0.891	0.567	0.889	1.05	0.437	0.414	0.336	0.159	0.22	0.536	0.451	0.447	0.195	0.29
NCI-H1703	1.16	1.2	1.21	1.05	1.2	0.473	0.54	0.381	0.33	0.431										
NCI-H1792	0.894	0.965	0.923	0.964	1.01		0.362	0.357	0.419	0.742						0.587	0.589	0.386	0.0865	0.0535
NCI-H2228	0.88	1.04	1.13	1.15	0.874	0.561	0.666	0.841	0.597	0.817	0.285	0.195	0.187	0.139	0.11					
NCI-H2342						0.393	0.377	0.457	0.43	0.535	0.449	0.508	0.468	0.378	0.294		0.732	0.637	0.514	0.433
SW 900						0.805	0.908	0.739	0.743	0.982	0.566	0.694	0.418	0.278	0.173	0.433	0.458	0.384	0.28	0.203
